Laboratory results reported in patent US5591849A, “Spiro[naphthalene-2(1H),2'-piperidine] and their use” (Takeda Chemical Industries, Ltd., priority 1994, dated 1997).
Structures can show the parent of a compound that is named as a salt.

Key:
45Ca2+ uptake = 45Ca2+ uptake inhibition experiments (veratrine-stimulated, rat cerebral cortex crude synaptosome fraction); type: biochemical; details: stimulated by 30 μM veratrine, rat cerebral cortex synaptosomes
Procedure: ^45 Ca^2+ uptake inhibition experiments
Rat cerebral cortex was homogenized with a 10-fold volume of 0.32M sucrose solution to yield a crude synaptosome fraction (100×g for 10 minutes, 12,000×g for 20 minutes). This fraction was homogenized in Tris buffer [neutralized with 132 mM sodium chloride, 5 mM potassium chloride, 1.3 mM magnesium chloride, 1.2 mM sodium dihydrogen phosphate, 1.2 mM calcium chloride, 10 mM glucose and 20 mM Tris base, saturated with a mixed gas (95% oxygen and 5% carbon dioxide)]. To 900 μl of this suspension, a DMSO solution (10 μl ) of the test drug was added, followed by 10 minutes of incubation at 37° C. 100 μl (final concentration 30μM) of a veratrine solution (containing 0.18 μci ^45 Ca^2+) was then added, followed by 10 minutes of incubation at 37° C. Subsequently, the reaction mixture was quenched by the addition of 4 ml of an ice cooled EGTA solution (120 mM sodium chloride, 5 mM potassium chloride, 5 mM EGTA, pH 7.5), and subjected to aspiration filtration through a GF/B filter; the filter was washed with two 4 ml portions of a washing solution (132 mM sodium chloride, 5 mM potassium chloride, 1.3 mM magnesium chloride, 1.2 mM calcium chloride, 20 mM Tris base, pH 7.5). The radioactivity on the filter was measured by the liquid scintillation method.
^45 Ca^2+ uptake suppression rates were calculated as follows: [formula]
^45 Ca^2+ uptake stimulated by 30 μM veratrine for 10 minutes in the presence of test drug
B: ^45 Ca^2+ uptake in the absence of veratrine and in the presence of test drug
C: ^45 Ca^2 + uptake stimulated by 30 μM veratrine for 10 minutes in the absence of test drug
D: ^45 Ca^2 + uptake in the absence of veratrine and test drug

[1] = target: T1, Monoamine oxidase B (MAO-B) (Rattus norvegicus, UniProt P19643); test: Monoamine oxidase B (MAO-B) inhibitory activity; type: biochemical
T1 construct: Whole rat brains were homogenized in a 10-fold volume of ice cooled 0.32 mM sucrose solution; from tissue; host or cells: whole rat brain homogenate
T1 sequence (P19643 1-520): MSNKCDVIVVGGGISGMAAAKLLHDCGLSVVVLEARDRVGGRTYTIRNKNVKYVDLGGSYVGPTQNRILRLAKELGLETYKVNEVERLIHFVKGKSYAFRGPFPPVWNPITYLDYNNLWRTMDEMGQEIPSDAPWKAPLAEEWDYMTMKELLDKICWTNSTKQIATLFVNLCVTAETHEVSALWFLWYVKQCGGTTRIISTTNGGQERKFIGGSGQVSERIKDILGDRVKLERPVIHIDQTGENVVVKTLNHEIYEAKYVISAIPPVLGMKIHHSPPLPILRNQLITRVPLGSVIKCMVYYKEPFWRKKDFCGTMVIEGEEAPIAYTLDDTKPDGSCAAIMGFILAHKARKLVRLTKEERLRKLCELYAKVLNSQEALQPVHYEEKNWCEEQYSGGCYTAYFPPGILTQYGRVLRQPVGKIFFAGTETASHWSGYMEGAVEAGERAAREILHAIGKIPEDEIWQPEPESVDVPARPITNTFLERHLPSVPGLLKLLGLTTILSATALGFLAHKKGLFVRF
Procedure: Monoamine oxidase B (MAO-B) inhibitory activity
Whole rat brains were homogenized in a 10-fold volume of ice cooled […] sucrose solution and diluted with a 10-fold volume of 10 mM phosphate buffer (pH 7.4). To 90 μl of this enzyme specimen, 1 μl of the test drug solution was added, followed by 10 minutes of incubation at 37° C. To the mixture, 10 μM of 14C-phenylethylamine was added, followed by 5 minutes of incubation at 37° C. After the reaction was stopped by the addition of 20 μl of 3M hydrochloric acid, 1 ml of water-saturated toluene-ethyl acetate (1:1) was added. The radioactivity of the metabolite migrated in the organic layer was measured by the liquid scintillation method.

SMILES | 45Ca Uptake Inhibitory Activity (% inhibition at 10 μM) (45Ca2+ uptake) [%] | IC50 [1] [nM]
COc1cccc(N2CCN(CCN3CCCCC34CCc3cc(OC)ccc3C4)CC2)c1.Cl.Cl (stereo not drawn) [Example 7-1, 3,4-Dihydro-6-methoxy-1'-[2-(4-(3-methoxyphenyl)piperazine-1-yl)ethyl]spiro[naphthalene-2(1H),2'-piperidine] dihydrochloride] | 90 | –
COc1ccc2c(c1)CCC1(CCCCN1CCOc1ccccc1)C2 (stereo not drawn) [Example 5-10, 3,4-Dihydro-6-methoxy-1'-(2-phenoxyethyl)spiro[naphthalene-(1H),2'-piperidine] hydrochloride] | 88 | –
COc1ccc2c(c1)CCC1(CCCCN1CCN1CCN(c3cccc(C(F)(F)F)c3)CC1)C2.Cl.Cl (stereo not drawn) [Example 7-6, 1'-[2-(4-(3-Trifluoromethylphenyl)piperazine-1-yl)ethyl]-3,4-dihydro-6-methoxyspiro[naphthalene-2(1H),2'-piperidine] dihydrochloride] | 106 | –
COc1ccc2c(c1)CCC1(CCCCN1CCCC1CCN(Cc3ccccc3)CC1)C2.Cl.Cl (stereo not drawn) [Example 5-14, 3,4-Dihydro-6-methoxy-1'-[3-(1-phenylmethylpiperidin-4yl)propyl]spiro[naphthalene-2(1H),2'-piperidine] dihydrochloride] | 74 | –
COc1ccc2c(c1)CCC1(CCCCN1CCCc1ccccc1)C2 (stereo not drawn) [Example 5-9, 3,4-Dihydro-6-methoxy-1'-(3-phenylpropyl)spiro[naphthalene-(1H),2'-piperidine] hydrochloride] | 92 | –
COc1ccc2c(c1)CCC1(CCCCN1CCN1CCN(c3ccccc3Cl)CC1)C2.Cl.Cl (stereo not drawn) [Example 7-3, 1'-[2-(4-(2-Chlorophenyl)piperazine-1-yl)ethyl]-3,4-dihydro-6-methoxyspiro[naphthalene-2(1H),2'-piperidine] dihydrochloride] | 95 | –
COc1ccc2c(c1)CCC1(CCCCN1CCN1CCN(c3ccc(F)cc3)CC1)C2 (stereo not drawn) [Example 7-5, 1'-[2-(4-(4-Fluorophenyl)piperazine-1-yl)ethyl]-3,4-dihydro-6-methoxyspiro[naphthalene-2(1H),2'-piperidine]dihydrochloride] | 87 | –
COc1ccc2c(c1)CCC1(CCCCN1CCN1CCC(c3ccccc3)CC1)C2.Cl.Cl (stereo not drawn) [Example 7-9, 3,4-Dihydro-6-methoxy-1'-[2-(4-phenylpiperidine-1-yl)ethyl]spiro[naphthalene-2(1H),2'-piperidine] dihydrochloride] | 109 | –
CCCN1CCCCC12CCc1cc(OCc3ccsc3)ccc1C2 (stereo not drawn) [Example 9-45, 3,4-Dihydro-1'-propyl-6-(3-thienylmethoxy)spiro[naphthalene-2(1H),2'-piperidine] hydrochloride] | – | 60
